Here are results for 8 compounds from PubChem BioAssay AID1259407 (Chemical Carcinogenesis Research Information System (CCRIS), 2018).

The series relates to CCRIS mutagenicity, Ames/micronucleus/aberration tests. Nature of the series: CCRIS mutagenicity studies.
Where [1] appears, read: Test System: AMES SALMONELLA TYPHIMURIUM, Strain/Indicator: TA97, Metabolic Activation: NONE, Method: PREINCUBATION
The mark [2] stands for this setting: Test System: AMES SALMONELLA TYPHIMURIUM, Strain/Indicator: TA98, Metabolic Activation: NONE, Method: PREINCUBATION
The mark [3] stands for this setting: Test System: AMES SALMONELLA TYPHIMURIUM, Strain/Indicator: TA100, Metabolic Activation: NONE, Method: PREINCUBATION
[4] abbreviates: Test System: AMES SALMONELLA TYPHIMURIUM, Strain/Indicator: TA100, Metabolic Activation: NONE, Method: STANDARD PLATE.

Activity calls are given as the source filed them. How the calls were made is not given here.

On to `COc1ccc(C(=O)c2ccccc2)c(O)c1`, for which the mutagenic call is “inactive; negative” (Test System: AMES SALMONELLA TYPHIMURIUM, Strain/Indicator: TA97, Metabolic Activation: HAMSTER, LIVER, S-9, AROCLOR 1254 (10%), Method: PREINCUBATION); “inactive; negative” (Test System: AMES SALMONELLA TYPHIMURIUM, Strain/Indicator: TA97, Metabolic Activation: HAMSTER, LIVER, S-9, AROCLOR 1254 (30%), Method: PREINCUBATION); “inactive; negative” under setting [1]; “inactive; negative” (Test System: AMES SALMONELLA TYPHIMURIUM, Strain/Indicator: TA97, Metabolic Activation: RAT, LIVER, S-9, AROCLOR 1254 (10%), Method: PREINCUBATION); “inactive; negative” (Test System: AMES SALMONELLA TYPHIMURIUM, Strain/Indicator: TA97, Metabolic Activation: RAT, LIVER, S-9, AROCLOR 1254 (30%), Method: PREINCUBATION); “inactive; negative” (Test System: AMES SALMONELLA TYPHIMURIUM, Strain/Indicator: TA98, Metabolic Activation: HAMSTER, LIVER, S-9, AROCLOR 1254 (10%), Method: PREINCUBATION). The mutagenic call by setting is: (Test System: AMES SALMONELLA TYPHIMURIUM, Strain/Indicator: TA98, Metabolic Activation: HAMSTER, LIVER, S-9, AROCLOR 1254 (30%), Method: PREINCUBATION) “inactive; negative”; under setting [2], “inactive; negative”; (Test System: AMES SALMONELLA TYPHIMURIUM, Strain/Indicator: TA98, Metabolic Activation: RAT, LIVER, S-9, AROCLOR 1254 (10%), Method: PREINCUBATION) “inactive; negative”; (Test System: AMES SALMONELLA TYPHIMURIUM, Strain/Indicator: TA98, Metabolic Activation: RAT, LIVER, S-9, AROCLOR 1254 (30%), Method: PREINCUBATION) “inactive; negative”; (Test System: AMES SALMONELLA TYPHIMURIUM, Strain/Indicator: TA100, Metabolic Activation: HAMSTER, LIVER, S-9, AROCLOR 1254 (10%), Method: PREINCUBATION) “inactive; negative”; (Test System: AMES SALMONELLA TYPHIMURIUM, Strain/Indicator: TA100, Metabolic Activation: HAMSTER, LIVER, S-9, AROCLOR 1254 (30%), Method: PREINCUBATION) “inactive; negative”. Besides, the mutagenic call reads like this: under setting [3], “inactive; negative”; (Test System: AMES SALMONELLA TYPHIMURIUM, Strain/Indicator: TA100, Metabolic Activation: RAT, LIVER, S-9, AROCLOR 1254 (10%), Method: PREINCUBATION) “inactive; negative”; (Test System: AMES SALMONELLA TYPHIMURIUM, Strain/Indicator: TA100, Metabolic Activation: RAT, LIVER, S-9, AROCLOR 1254 (30%), Method: PREINCUBATION) “inactive; negative”; (Test System: AMES SALMONELLA TYPHIMURIUM, Strain/Indicator: TA1535, Metabolic Activation: HAMSTER, LIVER, S-9, AROCLOR 1254 (10%), Method: PREINCUBATION) “inactive; negative”; (Test System: AMES SALMONELLA TYPHIMURIUM, Strain/Indicator: TA1535, Metabolic Activation: HAMSTER, LIVER, S-9, AROCLOR 1254 (30%), Method: PREINCUBATION) “inactive; negative”; (Test System: AMES SALMONELLA TYPHIMURIUM, Strain/Indicator: TA1535, Metabolic Activation: NONE, Method: PREINCUBATION) “inactive; negative”. Further, the mutagenic call runs as follows: (Test System: AMES SALMONELLA TYPHIMURIUM, Strain/Indicator: TA1535, Metabolic Activation: RAT, LIVER, S-9, AROCLOR 1254 (10%), Method: PREINCUBATION) “inactive; negative”; (Test System: AMES SALMONELLA TYPHIMURIUM, Strain/Indicator: TA1535, Metabolic Activation: RAT, LIVER, S-9, AROCLOR 1254 (30%), Method: PREINCUBATION) “inactive; negative”; (Test System: AMES SALMONELLA TYPHIMURIUM, Strain/Indicator: TA1537, Metabolic Activation: HAMSTER, LIVER, S-9, AROCLOR 1254 (10%), Method: PREINCUBATION) “inactive; negative”; (Test System: AMES SALMONELLA TYPHIMURIUM, Strain/Indicator: TA1537, Metabolic Activation: NONE, Method: PREINCUBATION) “inactive; negative”; (Test System: AMES SALMONELLA TYPHIMURIUM, Strain/Indicator: TA1537, Metabolic Activation: RAT, LIVER, S-9, AROCLOR 1254 (10%), Method: PREINCUBATION) “inactive; negative”; (Test System: MOUSE LYMPHOMA, Strain/Indicator: L5178Y (TK+/TK-), Metabolic Activation: NONE, Method: SUSPENSION/PLATE) “inactive; positive. reevaluation of results: negative”. The mutagenic call (Test System: MOUSE LYMPHOMA, Strain/Indicator: L5178Y (TK+/TK-), Metabolic Activation: RAT, LIVER, S-9, AROCLOR 1254, Method: SUSPENSION/PLATE) is “active; positive. reevaluation of results: equivocal”.
Take `O=C1C=C(CCl)CO1`: the mutagenic call under setting [4] was “active; positive”.
In the case of `[N-]=[N+]=NCC(=O)O`, the mutagenic call (Test System: AMES SALMONELLA TYPHIMURIUM, Strain/Indicator: TA1530, Metabolic Activation: NONE, Method: STANDARD PLATE) was “inactive; negative”.
Take `Cc1cc(N)c([N+](=O)[O-])cc1N`: the mutagenic call runs as follows: (Test System: AMES SALMONELLA TYPHIMURIUM, Strain/Indicator: TA98, Metabolic Activation: NONE, Method: STANDARD PLATE) “inactive; negative”; (Test System: AMES SALMONELLA TYPHIMURIUM, Strain/Indicator: TA98, Metabolic Activation: RAT, LIVER, S-9, AROCLOR 1254, Method: STANDARD PLATE) “active; positive”; under setting [4], “inactive; negative”; (Test System: AMES SALMONELLA TYPHIMURIUM, Strain/Indicator: TA100, Metabolic Activation: RAT, LIVER, S-9, AROCLOR 1254, Method: STANDARD PLATE) “inactive; negative”; (Test System: AMES SALMONELLA TYPHIMURIUM, Strain/Indicator: TA1535, Metabolic Activation: NONE, Method: STANDARD PLATE) “inactive; negative”; (Test System: AMES SALMONELLA TYPHIMURIUM, Strain/Indicator: TA1535, Metabolic Activation: RAT, LIVER, S-9, AROCLOR 1254, Method: STANDARD PLATE) “inactive; negative”. In addition, the mutagenic call (Test System: AMES SALMONELLA TYPHIMURIUM, Strain/Indicator: TA1537, Metabolic Activation: NONE, Method: STANDARD PLATE) is “inactive; negative”; the mutagenic call (Test System: AMES SALMONELLA TYPHIMURIUM, Strain/Indicator: TA1537, Metabolic Activation: RAT, LIVER, S-9, AROCLOR 1254, Method: STANDARD PLATE) was “active; positive”; the mutagenic call (Test System: AMES SALMONELLA TYPHIMURIUM, Strain/Indicator: TA1538, Metabolic Activation: NONE, Method: STANDARD PLATE) was “inactive; negative”; the mutagenic call (Test System: AMES SALMONELLA TYPHIMURIUM, Strain/Indicator: TA1538, Metabolic Activation: RAT, LIVER, S-9, AROCLOR 1254, Method: STANDARD PLATE) was “active; positive”.
In the case of `C=CCN(CC=C)C1c2ccccc2-c2ccccc2C1N1C2c3ccccc3-c3ccccc3C21` (configuration not stated), the mutagenic call under setting [4] is “inactive; negative”.
Still for that read-out and setting: under `COc1ccc(CNC(=O)C(C)Br)cc1` (configuration not stated) stands “active; positive”.
On to `CNc1ccccc1C(=O)OC`, for which the mutagenic call is “inactive; negative” under setting [1]; “inactive; negative” (Test System: AMES SALMONELLA TYPHIMURIUM, Strain/Indicator: TA97, Metabolic Activation: RAT, LIVER, S-9, AROCLOR 1254, Method: PREINCUBATION); “inactive; negative” (Test System: AMES SALMONELLA TYPHIMURIUM, Strain/Indicator: TA102, Metabolic Activation: NONE, Method: PREINCUBATION); “inactive; negative” (Test System: AMES SALMONELLA TYPHIMURIUM, Strain/Indicator: TA102, Metabolic Activation: RAT, LIVER, S-9, AROCLOR 1254, Method: PREINCUBATION); “inactive; negative” (Test System: UDS RODENT HEPATOCYTES, Strain/Indicator: THY INCORP (NON-S-PHASE), Metabolic Activation: NONE, Method: AUTORADIOGRAPHY).
Regarding `O=C(Cl)CCc1ccccc1`, the mutagenic call under setting [2] was “active; positive”; the mutagenic call (Test System: AMES SALMONELLA TYPHIMURIUM, Strain/Indicator: TA98, Metabolic Activation: RAT LIVER S-9, PCB, Method: PREINCUBATION) is “active; positive”; the mutagenic call under setting [3] was “active; positive”; the mutagenic call (Test System: AMES SALMONELLA TYPHIMURIUM, Strain/Indicator: TA100, Metabolic Activation: RAT LIVER S-9, PCB, Method: PREINCUBATION) is “active; positive”; the mutagenic call (Test System: AMES SALMONELLA TYPHIMURIUM, Strain/Indicator: TA104, Metabolic Activation: NONE, Method: PREINCUBATION) is “active; positive”; the mutagenic call (Test System: AMES SALMONELLA TYPHIMURIUM, Strain/Indicator: TA104, Metabolic Activation: RAT LIVER S-9, PCB, Method: PREINCUBATION) was “active; positive”. The mutagenic call (Test System: E.COLI, Strain/Indicator: WP2 UVRA, Metabolic Activation: NONE, Method: PREINCUBATION) was “inactive; negative” and the mutagenic call (Test System: E.COLI, Strain/Indicator: WP2 UVRA, Metabolic Activation: RAT LIVER S-9, PCB, Method: PREINCUBATION) is “active; positive”.
